The values that follow come from patent US20100028892A1, “YEAST BASED EXPRESSION OF PROTEASES AND METHODS OF USE” (Burnham Institute for Medical Research, priority 2008, published 2010).

Assay [1] concerns the target T1, Caspase8 activated with FADD + Fas (Homo sapiens, UniProt Q14790).
T1 construct: a small amount of each full-length Caspase construct was expressed with a large amount of adaptor protein FADD; HA (C); expressed in transfected cells; host or cells: Saccharomyces cerevisiae EGY48
Briefly: yeast 384 well β-galactosidase reporter assay, Caspase8 activated with FADD + Fas. It counts as cell-based. The settings on record: Caspase8 activated with FADD + Fas in yeast, 384 well β-galactosidase activity assay. From the text: (§1) When converting the yeast-based protease reporter system to HTS assay, conditions from agar plates to liquid medium in microtiter wells must be revised. This revision comprises, utilizing the measured β-galactosidase produced by yeast carrying the Caspase-cleavable reporter proteins, and assaying the colorimetric product (OD620nm) derived from X-gal substrate in 384 well plates, as a measure of the lacZ reporter gene activity. We compared β-galactosidase activity produced in the presence or absence of the broad-spectrum caspase inhibitory compound, zVAD-fmk ([…]-Valinyl-Alaninyl-Aspartyl-fluoromethylketone). […] Note that it was determined that it is not advisible to employ glucose in yeast media because it represses the GAL1 promoter used in some plasmids. […]
(§2) Yeast expressing various Caspases alone (at high levels) or in combination with upstream activators (at low levels) and cleavable substrates containing appropriate tetrapeptides reorganized by these proteases were used in 384 well β-galactosidase activity assays to assess inhibition by zVAD-fmk. The compound was titrated into assays at various concentrations and percentage inhibition was determined.
(§3) Assays were performed in a total volume of […] in triplicate. […] Absorbance at 620 nm was measured 2-3 days after culture at 30° C.

The test system of a further assay is Caspases. As to the kind of experiment: validation of 384 well yeast-based Caspase-dependent lacZ reporter gene assays with pharmacological inhibitors. In kind it is cell-based, human.
Excerpt: When converting the yeast-based protease reporter system to HTS assay, conditions from agar plates to liquid medium in microtiter wells must be revised. This revision comprises, utilizing the measured β-galactosidase produced by yeast carrying the Caspase-cleavable reporter proteins, and assaying the colorimetric product (OD620nm) derived from X-gal substrate in 384 well plates, as a measure of the lacZ reporter gene activity. We compared β-galactosidase activity produced in the presence or absence of the broad-spectrum caspase inhibitory compound, zVAD-fmk ([…]-Valinyl-Alaninyl-Aspartyl-fluoromethylketone). Among the variables that were initially interrogated were initial seeding cell density, time of culture, concentration of X-gal substrate, and supporting carbohydrate (raffinose vs mannose). Note that it was determined that it is not advisible to employ glucose in yeast media because it represses the GAL1 promoter used in some plasmids. An example of data obtained using the plural-component system of Fas/FADD/Caspase-8 is presented. All variables tested altered the signal:noise ratio of the assay. […] For the two-component system of ASC/Caspase-1 and for the plural-component system of NALP1ΔLRR/ASC/Caspase-1, the same conditions were optimal, among those tested (not shown). For the Fas/Fadd/Caspase 8, the caspase and adaptor protein (Fadd) were expressed at relatively small amounts (a weak promoter and low copy number plasmid are used) and the upstream activator (Fas) was expressed in a large amount.
The 384 well assay format was further validated, using zVAD-fmk, a peptidyl inhibitor with broad-spectrum activity against animal Caspases. […]
The validation results of a yeast-based Caspase assay using a pharmacological inhibitor of Caspases are shown in FIG. 11 consisting of FIGS. 11A-C (A) Caspase-1, single-component assay. […] For (A-C), relative absorbance at 620 nm was measured (mean ±std dev; n=3-5 independent experiments). […]
as §3
Background: In a reporter assay the amount or activity of a reporter protein is the signal.

Assay [2] deals with T2, Caspase1 activated with Asc (Homo sapiens, UniProt P29466).
T2 construct: Caspase (all full-length zymogen proforms) expression plasmids; FLAG (C); expressed in transfected cells; host or cells: Saccharomyces cerevisiae (EGY191 or EGY48)
T2 sequence (P29466 120-297 limits assumed): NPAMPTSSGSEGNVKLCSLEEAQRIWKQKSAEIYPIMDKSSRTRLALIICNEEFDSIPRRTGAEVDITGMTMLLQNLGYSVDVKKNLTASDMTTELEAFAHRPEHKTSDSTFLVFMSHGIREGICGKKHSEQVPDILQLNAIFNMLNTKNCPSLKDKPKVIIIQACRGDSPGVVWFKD
T2 sequence (P29466 317-404 limits assumed): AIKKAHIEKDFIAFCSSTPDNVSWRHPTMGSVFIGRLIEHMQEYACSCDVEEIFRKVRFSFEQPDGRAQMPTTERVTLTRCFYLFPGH
Briefly: yeast 384 well β-galactosidase reporter assay, Caspase1 activated with Asc. It counts as cell-based. The settings on record: Caspase1 activated with Asc in yeast, 384 well β-galactosidase activity assay.
Excerpt: as §1, §2, §3

Assay [3] concerns the target T3, Caspase10 activated with FADD (Homo sapiens, UniProt Q92851).
T3 construct: a small amount of each full-length Caspase construct was expressed with a large amount of adaptor protein FADD; FLAG (C); expressed in transfected cells; host or cells: Saccharomyces cerevisiae EGY48
T3 sequence (Q92851 1-479 isoform Q92851-2): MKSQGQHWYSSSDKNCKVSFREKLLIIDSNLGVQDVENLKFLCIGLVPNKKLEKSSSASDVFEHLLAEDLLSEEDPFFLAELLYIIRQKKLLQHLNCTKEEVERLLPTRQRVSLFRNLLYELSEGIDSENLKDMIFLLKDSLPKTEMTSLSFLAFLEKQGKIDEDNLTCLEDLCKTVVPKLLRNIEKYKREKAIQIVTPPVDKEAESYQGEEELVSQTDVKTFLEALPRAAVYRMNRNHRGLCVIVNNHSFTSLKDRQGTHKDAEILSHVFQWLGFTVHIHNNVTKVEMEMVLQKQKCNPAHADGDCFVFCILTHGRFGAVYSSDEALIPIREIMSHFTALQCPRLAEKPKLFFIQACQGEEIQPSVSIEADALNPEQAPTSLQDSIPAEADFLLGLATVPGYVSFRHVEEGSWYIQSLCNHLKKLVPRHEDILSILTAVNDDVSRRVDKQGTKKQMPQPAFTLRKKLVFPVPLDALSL
Briefly: yeast 384 well β-galactosidase reporter assay, Caspase10 activated with FADD. In kind it is cell-based. Conditions: Caspase10 activated with FADD in yeast, 384 well β-galactosidase activity assay.
Excerpt: as §1, §2, §3

T1 sequence (Q14790 217-374 limits assumed): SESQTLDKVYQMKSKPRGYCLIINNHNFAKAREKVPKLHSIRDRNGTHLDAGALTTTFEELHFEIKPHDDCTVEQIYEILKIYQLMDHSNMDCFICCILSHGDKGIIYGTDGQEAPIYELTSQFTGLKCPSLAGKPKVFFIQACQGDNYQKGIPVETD
T1 sequence (Q14790 385-479 limits assumed): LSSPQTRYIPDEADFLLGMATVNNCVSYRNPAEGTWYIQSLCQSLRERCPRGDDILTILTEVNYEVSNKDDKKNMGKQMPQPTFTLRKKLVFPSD

Regarding “benzoyl-Valinyl-Alaninyl-Aspartyl-fluoromethylketone [zVAD-fmk]”, the IC50 in assay [1] was 5.42 µM; on Caspases (range over the yeast-based Caspase assays, 384 well format, read-out: concentration required for achieving 50% inhibition of β-galactosidase activity) it was 1 to 10 µM; in assay [2] it was 1 µM; in assay [3], 9.52 µM. In the assay with Caspases (384 well yeast-based Caspase-dependent reporter gene assay), the “effect on β-galactosidase activity / activation of the lacZ reporter gene” value was “inhibited β-galactosidase activity in a dose-dependent fashion”.
